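Method: 48-hour compound exposure of cells in 96-well plates, five concentrations, linear interpolation of endpoints. Abbreviation: GI50, concentration required for 50% inhibition of growth. TGI denotes the concentration required for complete inhibition of growth.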
Tests used:
Assay in all cases: DTP human tumour cell line panel, 48 h; in the data active = GI50 below about 0.43 µM; inactive = the rest
LOX IMVI melanoma = system: LOX IMVI melanoma
SK-MEL-2 melanoma = system: SK-MEL-2 melanoma
T-47D breast = system: T-47D breast
MOLT-4 leukemia = system: MOLT-4 leukemia
MDA-MB-231 breast = system: MDA-MB-231 breast
U251 CNS = system: U251 CNS
OVCAR-4 ovarian = system: OVCAR-4 ovarian
NCI-H23 lung = system: NCI-H23 lung
CCRF-CEM leukemia = system: CCRF-CEM leukemia
HCT-116 colon = system: HCT-116 colon
IGROV1 ovarian = system: IGROV1 ovarian
BT-549 breast = system: BT-549 breast
EKVX NSCLC = system: EKVX NSCLC
SF-295 CNS = system: SF-295 CNS
MALME-3M melanoma = system: MALME-3M melanoma
HS 578T breast = system: HS 578T breast
UACC-62 melanoma = system: UACC-62 melanoma
OVCAR-3 ovarian = system: OVCAR-3 ovarian
RXF 393 renal = system: RXF 393 renal
HCT-15 colon = system: HCT-15 colon
ACHN renal = system: ACHN renal
PC-3 prostate = system: PC-3 prostate
SNB-75 CNS = system: SNB-75 CNS
A549 NSCLC = system: A549 NSCLC
SF-539 CNS = system: SF-539 CNS
M14 melanoma = system: M14 melanoma
KM12 colon = system: KM12 colon
SK-MEL-28 melanoma = system: SK-MEL-28 melanoma

NC(CSSCC(N)C(=O)O)C(=O)O (stereo not given)
> 100 µM: TGI (LOX IMVI melanoma) | TGI (SK-MEL-2 melanoma) | TGI (T-47D breast) | TGI (MOLT-4 leukemia) | TGI (MDA-MB-231 breast) | TGI (U251 CNS) | TGI (OVCAR-4 ovarian) | TGI (NCI-H23 lung) | TGI (CCRF-CEM leukemia) | TGI (HCT-116 colon) | TGI (IGROV1 ovarian) | TGI (BT-549 breast) | TGI (EKVX NSCLC) | TGI (SF-295 CNS) | TGI (MALME-3M melanoma) | TGI (HS 578T breast) | TGI (UACC-62 melanoma) | TGI (OVCAR-3 ovarian) | TGI (RXF 393 renal) | TGI (HCT-15 colon) | TGI (ACHN renal) | TGI (PC-3 prostate) | TGI (SNB-75 CNS) | TGI (A549 NSCLC) | TGI (SF-539 CNS) | TGI (M14 melanoma) | TGI (KM12 colon)
inactive: GI50 (LOX IMVI melanoma) > 100 µM | GI50 (SK-MEL-2 melanoma) > 100 µM | GI50 (T-47D breast) > 100 µM | GI50 (MOLT-4 leukemia) > 100 µM | GI50 (MDA-MB-231 breast) > 100 µM | GI50 (U251 CNS) > 100 µM | GI50 (OVCAR-4 ovarian) > 100 µM | GI50 (NCI-H23 lung) > 100 µM | GI50 (CCRF-CEM leukemia) > 100 µM | GI50 (HCT-116 colon) > 100 µM | GI50 (IGROV1 ovarian) > 100 µM | GI50 (BT-549 breast) > 100 µM | GI50 (EKVX NSCLC) > 100 µM | GI50 (SF-295 CNS) > 100 µM | GI50 (MALME-3M melanoma) > 100 µM | GI50 (HS 578T breast) > 100 µM | GI50 (UACC-62 melanoma) > 100 µM | GI50 (OVCAR-3 ovarian) > 100 µM | GI50 (RXF 393 renal) > 100 µM | GI50 (HCT-15 colon) > 100 µM | GI50 (ACHN renal) > 100 µM | GI50 (PC-3 prostate) > 100 µM | GI50 (SNB-75 CNS) > 100 µM | GI50 (A549 NSCLC) > 100 µM | GI50 (SF-539 CNS) > 100 µM | GI50 (M14 melanoma) > 100 µM | GI50 (KM12 colon) > 100 µM | GI50 (SK-MEL-28 melanoma) > 100 µM
